Some test systems named below: MDA-N; M14 melanoma; TK-10 renal; COLO 205 colon; MDA-MB-435; HS 578T breast; DLD-1 colon; XF 498 CNS; DMS 114 small cell lung; M19-MEL melanoma; SN12K1 renal; DMS 273 small cell lung; P388 leukemia; SNB-78 CNS; HOP-18 NSCLC.
What all share (assay): NCI tumour cell line growth inhibition, 48 h

Among the data in PubChem BioAssay (NCI) are TGI and GI50 values, retold here.

SMILES strings stand for the structures.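 Five compound concentrations were applied to cells in 96-well plates for 48 hours; endpoints were derived by simple linear interpolation of the resulting dose-response curve. The concentration for 50% growth inhibition is given as GI50. Definition used: TGI = concentration required for complete inhibition of growth.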

In the case of `CCOc1ncn(-c2ccc(NC(=S)Nc3cccc(O)c3)cc2)n1`, the TGI in the experiment with MDA-N, in the experiment on M14 melanoma, with TK-10 renal, in the experiment on COLO 205 colon and in the experiment with MDA-MB-435 was over 100 µM in each case.
For the compound `COC[C@H]1C(=O)NCC(=O)N2NCCC[C@H]2C(=O)N(O)[C@H](C)C(=O)O[C@@H](C(C)C)[C@H](NC(=O)[C@](C)(O)[C@]2(O)CC[C@@H](CC(C)C)[C@H](C)O2)C(=O)N2NCCC[C@@H]2C(=O)N1O`, the GI50 in the experiment with HS 578T breast is under 0.01 µM; in the experiment with TK-10 renal, 0.0181 µM; in the experiment with COLO 205 colon, 0.0139 µM; with MDA-MB-435 it was under 0.01 µM. The TGI with HS 578T breast came out at 0.0244 µM; in the experiment with TK-10 renal, 0.0322 µM; in the experiment on COLO 205 colon, 0.0284 µM; in the experiment on MDA-MB-435 it was 0.0128 µM.
`CC1(C)CCc2c(cc3c(c2O)CCC(C)(C)O3)O1`: the TGI with MDA-N, in the experiment with M14 melanoma, in the experiment on HS 578T breast, in the experiment with TK-10 renal and with COLO 205 colon was over 100 µM throughout.
`Cc1ccc(OP2(=O)Oc3ccc4ccccc4c3CN2c2ccc(Cl)cc2)cc1C` (stereo not given): the TGI in the experiment on DLD-1 colon, with XF 498 CNS, with DMS 114 small cell lung, with M19-MEL melanoma, with SN12K1 renal and in the experiment on DMS 273 small cell lung was over 100 µM throughout. For the same compound, the TGI in the experiment on COLO 205 colon, in the experiment with P388 leukemia, with SNB-78 CNS and in the experiment on HOP-18 NSCLC was over 100 µM throughout.
`C=C/C(C)=C/[C@H](C)C(=O)C[C@H](O)CC1CC(=O)NC(=O)C1`: the TGI in the experiment with DLD-1 colon was over 100 µM; in the experiment with XF 498 CNS it was 9.91 µM; in the experiment on DMS 114 small cell lung it was over 100 µM; in the experiment with M19-MEL melanoma, over 100 µM; with SN12K1 renal, over 100 µM; in the experiment on DMS 273 small cell lung, over 100 µM. Further, the TGI in the experiment on COLO 205 colon was over 100 µM; in the experiment with P388 leukemia, over 100 µM; in the experiment on SNB-78 CNS it was over 100 µM; in the experiment with HOP-18 NSCLC, over 93.6 µM.
On to `COc1ccc2c(O)c3[n+](cc2c1OC)CCc1cc2c(cc1-3)OCO2`, for which the TGI in the experiment with MDA-N is over 100 µM; in the experiment with M14 melanoma it was over 100 µM; with HS 578T breast, over 100 µM; in the experiment with TK-10 renal it was over 100 µM; with COLO 205 colon, over 100 µM; in the experiment with MDA-MB-435 it was 69.3 µM.
For `Nc1cc2c(cc1[N+](=O)[O-])[nH]c1c(-c3ccccc3)nccc12`, the TGI with DLD-1 colon was over 76.5 µM; with XF 498 CNS, over 100 µM; in the experiment on DMS 114 small cell lung it was 35.7 µM; in the experiment with M19-MEL melanoma, 42.7 µM; in the experiment with SN12K1 renal, 67.7 µM; in the experiment on DMS 273 small cell lung, 48.9 µM. In addition, the TGI with COLO 205 colon is 44.3 µM; with P388 leukemia it was 41 µM; in the experiment with SNB-78 CNS, over 58.2 µM; in the experiment on HOP-18 NSCLC, 50.8 µM.
Turning to `COc1ccc(C(=O)C2CC3(CCC2(O)c2ccc(OC)cc2)CC(=O)Nc2ccccc2C3=O)cc1` (stereo not given), the TGI with MDA-N, with M14 melanoma, in the experiment with HS 578T breast, with TK-10 renal, in the experiment with COLO 205 colon and with MDA-MB-435 was over 100 µM each time.
On to `CO/C(=N\N=C(/C)C(F)(F)F)c1ccncc1`, for which the TGI with MDA-N, in the experiment on M14 melanoma, in the experiment on HS 578T breast, in the experiment with COLO 205 colon and in the experiment with MDA-MB-435 was over 100 µM throughout.
